Where two headings read alike, the source gives them in different places.
Tests used:
[1] = test system: L. infantum (MHOM/MA/67/ITMAP-263) intracellular amastigotes; assay: Anti-parasitic activity against L. infantum intracellular amastigotes (infection with axenic amastigotes luciferase positive); type: cell-based; conditions: Table 1; for inhibition at 10 µM / IC50: Leishmania infantum; for inhibition at 10 µM: read-out: Single Dose Assay 10 μM Mean Inhibitory Activity (%) ± SD; for IC50: read-out: Dose Response Curves IC50 ± SD; for Selectivity Index CC50/IC50 or NOAEL/IC50: THP-1 toxicity / L. infantum IC50
[2] = Toxicity MTT assay in PMA-differentiated THP-1 cells; type: cell-based, human; conditions: human, PMA-differentiated THP-1 cells (macrophages); for CC50: THP-1 macrophages, Table 1, read-out: Toxicity CC50 ± SD or NOAEL; for IC50: Table 4b, read-out: Cytotoxicity THP-1 (IC50)
Text: (§1) The in vitro antiparasitic activity against L. infantum (MHOM/MA/67/ITMAP-263) and the toxicity against THP-1 macrophages is presented in Table 1.

[3] = test system: PMA-differentiated THP-1 cells; assay: as above; type: cell-based, human; conditions: for CC50: read-out: Toxicity CC50 ± SD or NOAEL
Text: as §1

[4] = test system: T. b. brucei L427 WT Blood-Stream Form; assay: Anti-parasitic activity against T. b. brucei blood-stream form (resazurin 72 h assay); type: cell-based; conditions: 10 μM, Table 2; for inhibition at 10 µM: Trypanosoma brucei, read-out: Single Dose Assay 10 μM Mean Inhibitory Activity (%) ± SD
CYP1A2 = target: T1, CYP1A2 (Homo sapiens, UniProt P05177); assay: Early toxicity: CYP1A2 inhibition; type: in vitro ADME; conditions: mean ± SD, Table 4a; for inhibition at 10 µM: human
T1 sequence (P05177 1-516): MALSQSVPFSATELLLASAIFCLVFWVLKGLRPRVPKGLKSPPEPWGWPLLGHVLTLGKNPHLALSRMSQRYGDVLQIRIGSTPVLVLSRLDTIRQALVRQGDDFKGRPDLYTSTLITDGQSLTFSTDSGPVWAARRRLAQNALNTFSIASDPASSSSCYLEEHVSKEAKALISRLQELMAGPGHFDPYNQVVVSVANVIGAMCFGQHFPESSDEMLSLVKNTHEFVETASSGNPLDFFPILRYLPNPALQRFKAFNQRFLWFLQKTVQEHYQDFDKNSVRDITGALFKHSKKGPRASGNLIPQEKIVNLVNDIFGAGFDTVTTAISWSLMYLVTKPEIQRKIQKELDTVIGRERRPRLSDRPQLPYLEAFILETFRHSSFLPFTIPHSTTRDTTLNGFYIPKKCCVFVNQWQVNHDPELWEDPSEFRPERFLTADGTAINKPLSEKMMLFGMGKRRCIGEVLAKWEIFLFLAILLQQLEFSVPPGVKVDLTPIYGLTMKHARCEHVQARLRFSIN

CYP2C9 = CYP2C9 (Homo sapiens, UniProt P11712); assay: Early toxicity: CYP2C9 inhibition; type: in vitro ADME; conditions: mean ± SD, Table 4a; for inhibition at 10 µM: human
CYP2C19 = CYP2C19 (Homo sapiens, UniProt P33261); assay: Early toxicity: CYP2C19 inhibition; type: in vitro ADME; conditions: mean ± SD, Table 4a; for inhibition at 10 µM: human
CYP2D6 = CYP2D6 (Homo sapiens, UniProt P10635); assay: Early toxicity: CYP2D6 inhibition; type: in vitro ADME; conditions: mean ± SD, Table 4a; for inhibition at 10 µM: human
CYP3A4 = CYP3A4 (Homo sapiens, UniProt P08684); assay: Early toxicity: CYP3A4 inhibition; type: in vitro ADME; conditions: 10 μM, mean ± SD, Table 4a; for inhibition at 10 µM: human, read-out: % inhibition CYP3A4
A549 = assay: Early toxicity: A549 cell growth; type: cell-based; conditions: 10 μM; 100% = not cytotoxic, 0% = cytostatic, −100% = cytotoxic
W1-38 = assay: Early toxicity: W1-38 cell growth; type: cell-based; conditions: 10 μM
mitochondria = assay: Early toxicity: mitochondrial toxicity; type: cell-based; conditions: for % mitochondrial toxicity: 10 μM, 100% mitotoxic, 0% not mitotoxic; for mitochondrial toxicity: Table 4b
hERG channel = hERG channel (Homo sapiens, UniProt Q12809); assay: Early toxicity: hERG inhibition; conditions: for inhibition at 10 µM: human
T. b. brucei GVR35 = assay: Stage II HAT mice model, live imaging; type: in vivo; conditions: 10 mg/kg/day IP, 7 days of treatment

Chain of CYP2C9 (P11712 whole entry): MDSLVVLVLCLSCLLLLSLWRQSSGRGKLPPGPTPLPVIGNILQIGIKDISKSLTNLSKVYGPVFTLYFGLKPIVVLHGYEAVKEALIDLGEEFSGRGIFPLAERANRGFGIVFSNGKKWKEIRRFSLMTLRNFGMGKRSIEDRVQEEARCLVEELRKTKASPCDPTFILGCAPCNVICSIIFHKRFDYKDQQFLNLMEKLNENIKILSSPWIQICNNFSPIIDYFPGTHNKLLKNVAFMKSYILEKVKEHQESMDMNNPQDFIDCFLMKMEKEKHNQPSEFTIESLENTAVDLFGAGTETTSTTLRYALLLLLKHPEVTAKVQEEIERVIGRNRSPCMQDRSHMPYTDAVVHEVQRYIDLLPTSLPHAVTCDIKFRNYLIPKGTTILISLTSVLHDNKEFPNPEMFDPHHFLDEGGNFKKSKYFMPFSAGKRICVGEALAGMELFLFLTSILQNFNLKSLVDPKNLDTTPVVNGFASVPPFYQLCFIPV
Chain of CYP2D6 (P10635 whole entry): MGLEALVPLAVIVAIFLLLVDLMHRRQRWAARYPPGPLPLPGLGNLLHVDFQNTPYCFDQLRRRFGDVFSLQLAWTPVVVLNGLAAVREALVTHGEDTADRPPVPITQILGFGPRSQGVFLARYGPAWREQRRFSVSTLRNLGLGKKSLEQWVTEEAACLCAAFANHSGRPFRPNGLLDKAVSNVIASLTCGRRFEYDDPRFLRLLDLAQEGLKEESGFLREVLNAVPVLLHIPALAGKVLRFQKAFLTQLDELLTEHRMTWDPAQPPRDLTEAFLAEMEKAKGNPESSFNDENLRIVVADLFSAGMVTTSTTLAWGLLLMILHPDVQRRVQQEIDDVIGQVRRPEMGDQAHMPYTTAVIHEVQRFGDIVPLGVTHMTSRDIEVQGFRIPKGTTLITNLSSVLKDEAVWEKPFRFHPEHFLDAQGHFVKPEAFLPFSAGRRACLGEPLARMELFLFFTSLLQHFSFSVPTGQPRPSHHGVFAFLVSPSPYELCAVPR
Chain of CYP2C19 (P33261 whole entry): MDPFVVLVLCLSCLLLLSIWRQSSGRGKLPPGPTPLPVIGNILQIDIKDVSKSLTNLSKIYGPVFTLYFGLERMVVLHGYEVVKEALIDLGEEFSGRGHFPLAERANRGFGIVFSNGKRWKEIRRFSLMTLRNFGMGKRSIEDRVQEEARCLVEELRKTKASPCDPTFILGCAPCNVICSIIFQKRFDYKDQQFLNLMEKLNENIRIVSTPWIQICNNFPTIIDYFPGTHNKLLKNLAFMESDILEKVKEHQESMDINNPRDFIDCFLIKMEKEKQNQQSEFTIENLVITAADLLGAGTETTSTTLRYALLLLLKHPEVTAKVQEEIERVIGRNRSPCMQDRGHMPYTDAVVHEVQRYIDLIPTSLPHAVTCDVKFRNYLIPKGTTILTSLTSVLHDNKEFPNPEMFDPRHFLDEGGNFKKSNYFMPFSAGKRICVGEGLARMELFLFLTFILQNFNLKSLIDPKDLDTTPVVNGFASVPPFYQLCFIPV
Chain of CYP3A4 (P08684 whole entry): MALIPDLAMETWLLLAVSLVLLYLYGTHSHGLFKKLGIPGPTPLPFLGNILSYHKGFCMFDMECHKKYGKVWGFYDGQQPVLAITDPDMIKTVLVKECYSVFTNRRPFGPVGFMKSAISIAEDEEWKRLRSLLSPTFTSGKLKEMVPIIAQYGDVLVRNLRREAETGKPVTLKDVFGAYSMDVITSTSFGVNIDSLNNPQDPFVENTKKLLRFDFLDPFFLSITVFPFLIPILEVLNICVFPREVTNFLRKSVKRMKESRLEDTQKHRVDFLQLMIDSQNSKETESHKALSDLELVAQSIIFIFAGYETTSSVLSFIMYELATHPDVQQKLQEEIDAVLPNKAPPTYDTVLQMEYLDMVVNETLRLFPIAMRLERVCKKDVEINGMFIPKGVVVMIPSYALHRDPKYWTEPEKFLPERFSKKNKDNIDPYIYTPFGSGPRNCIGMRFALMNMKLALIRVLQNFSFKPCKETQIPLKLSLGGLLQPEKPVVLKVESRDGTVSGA
Chain of hERG channel (Q12809 whole entry): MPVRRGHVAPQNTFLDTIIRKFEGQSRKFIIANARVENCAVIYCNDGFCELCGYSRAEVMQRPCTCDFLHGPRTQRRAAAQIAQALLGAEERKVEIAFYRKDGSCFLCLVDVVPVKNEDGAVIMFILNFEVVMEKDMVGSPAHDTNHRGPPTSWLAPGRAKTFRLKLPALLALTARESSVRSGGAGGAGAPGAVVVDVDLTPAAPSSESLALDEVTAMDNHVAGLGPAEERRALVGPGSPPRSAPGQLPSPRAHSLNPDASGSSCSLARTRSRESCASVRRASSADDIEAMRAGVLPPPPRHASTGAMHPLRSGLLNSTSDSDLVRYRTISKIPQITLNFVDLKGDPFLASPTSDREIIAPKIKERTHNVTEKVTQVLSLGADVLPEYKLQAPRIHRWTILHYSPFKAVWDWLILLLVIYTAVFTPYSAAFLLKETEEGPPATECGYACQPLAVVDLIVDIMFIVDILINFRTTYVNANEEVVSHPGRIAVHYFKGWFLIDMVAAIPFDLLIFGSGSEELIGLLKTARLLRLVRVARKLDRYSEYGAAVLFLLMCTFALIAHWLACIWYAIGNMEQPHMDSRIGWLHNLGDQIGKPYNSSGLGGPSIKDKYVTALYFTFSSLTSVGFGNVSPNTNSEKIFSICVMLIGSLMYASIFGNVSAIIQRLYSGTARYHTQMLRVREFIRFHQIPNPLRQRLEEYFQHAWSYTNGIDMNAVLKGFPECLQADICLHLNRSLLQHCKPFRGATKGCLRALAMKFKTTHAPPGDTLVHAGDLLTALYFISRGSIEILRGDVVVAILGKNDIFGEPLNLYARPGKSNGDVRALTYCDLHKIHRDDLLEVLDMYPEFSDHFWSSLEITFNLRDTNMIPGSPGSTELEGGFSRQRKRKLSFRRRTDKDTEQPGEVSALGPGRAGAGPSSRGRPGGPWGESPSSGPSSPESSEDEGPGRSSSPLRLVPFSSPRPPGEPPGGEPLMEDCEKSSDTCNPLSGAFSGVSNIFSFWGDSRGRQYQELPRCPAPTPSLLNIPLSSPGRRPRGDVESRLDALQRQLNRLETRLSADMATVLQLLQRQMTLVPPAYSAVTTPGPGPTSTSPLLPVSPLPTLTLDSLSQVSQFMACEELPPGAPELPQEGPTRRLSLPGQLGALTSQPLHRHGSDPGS

Structure (SMILES): C[N+](C)(C)CCCOP(=O)([O-])OCCCCC=C1CCCCCCCCCCCCCC1 [Compound 15, 5-cyclopentadecylidenepentyl (3-(trimethylammonio)propyl) phosphate]
- inhibition at 10 µM ([1]; 10 μM): 49 ± 1%
- CC50 [2]: > 100 µM
- IC50 [2]: > 100 µM
- CC50 ([3]; Table 2): > 100 µM
- inhibition at 10 µM [4]: 14 ± 5%
- inhibition at 10 µM (CYP1A2): 9.44 ± 2.84%
- inhibition at 10 µM (CYP2C9): 15.6 ± 6.17%
- inhibition at 10 µM (CYP2C19): 42 ± 7.27%
- inhibition at 10 µM (CYP2D6): 32.4 ± 2.88%
- inhibition at 10 µM (CYP3A4): 23.4 ± 1.94%
- % cell growth A549 (A549): 112.20 ± 6.11%
- % cell growth W1-38 (W1-38): 124.02 ± 7.42%
- % mitochondrial toxicity (mitochondria): 1.08 ± 12.57%
- Flag for Interference, hERG (hERG channel; Table 4b): (no)
- inhibition at 10 µM (hERG channel): 15.5 ± 4.66%

Structure (SMILES): Nc1nc(N)nc(Nc2ccc([As]3SCC(CO)S3)cc2)n1 (stereo not drawn) [melarsoprol, reference compound]
- infection outcome (words) (T. b. brucei GVR35): able to clear the infection

Structure (SMILES): C[N+](C)(C)CCCOP(=O)([O-])OCCCCCC1CCCCCCCCCCCCCC1 [Compound 20, 5-cyclonentadecyloentyl (3-(trimethylammonio)propyl) phosohate]
- Single Dose Assay 10 μM Mean Inhibitory Activity (%) ± SD ([1]; 10 μM): 53 ± 6%
- CC50 ([3]; THP-1 macrophages, Table 1): > 100 µM
- CC50 ([3]; Table 2): > 100 µM
- IC50 ([3]; Table 4b, read-out: Cytotoxicity THP-1 (IC50)): > 100 µM
- Single Dose Assay 10 μM Mean Inhibitory Activity (%) ± SD [4]: 24 ± 10%
- % inhibition CYP1A2 (CYP1A2; 10 μM): 10.14 ± 3.87%
- % inhibition CYP2C9 (CYP2C9; 10 μM): 15.44 ± 0.53%
- % inhibition CYP2C19 (CYP2C19; 10 μM): 52.28 ± 5.17%
- % inhibition CYP2D6 (CYP2D6; 10 μM): 44.01 ± 3.51%
- % inhibition CYP3A4 (CYP3A4): 22.83 ± 5.05%
- % cell growth A549 (A549): 104.50 ± 4.67%
- % cell growth W1-38 (W1-38): 98.77 ± 10.61%
- % mitochondrial toxicity (mitochondria): −3.82 ± 5.49%
- % inhibition hERG (hERG channel; 10 μM, Table 4b): 4.56 ± 15.55%
- Flag for Interference, hERG (hERG channel; Table 4b): (no)

Structure (SMILES): C[N+](C)(C)CCOP(=O)([O-])OCCC1CCCCCCCCCCCCCC1 [Compound 28, 2-cyclopentadecylethyl (2-(trimethylammonio)ethyl) phosphate]
- inhibition at 10 µM ([1]; 10 μM): 70 ± 7%
- IC50 [1]: 1.12 ± 0.45 µM
- Selectivity Index CC50/IC50 or NOAEL/IC50 [1]: >90
- CC50 [2]: > 100 µM
- IC50 [2]: > 100 µM
- inhibition at 10 µM (CYP1A2): 15.6 ± 2.12%
- inhibition at 10 µM (CYP2C9): 9.6 ± 4.6%
- inhibition at 10 µM (CYP2C19): 21.3 ± 3.7%
- inhibition at 10 µM (CYP2D6): 37.7 ± 3.27%
- inhibition at 10 µM (CYP3A4): 27.8 ± 1.95%
- % cell growth A549 (A549): 120.79 ± 0.63%
- % mitochondrial toxicity (mitochondria): 119.09 ± 14.82%
- mitochondrial toxicity (mitochondria): exhibit mitochondrial toxicity
- Flag for Interference, hERG (hERG channel; Table 4b): (no)
- inhibition at 10 µM (hERG channel): 39 ± 5.84%

Structure (SMILES): C[N+](C)(C)CCOP(=O)([O-])OCCCCC=C1CCCCCCCCCCC1 [Compound 12, 5-cyclododecylidenepentyl (2-(trimethylammonio)ethyl) phosphate]
- inhibition at 10 µM ([1]; 10 μM): 95 ± 2%
- IC50 [1]: 0.9 ± 0.7 µM
- Selectivity Index CC50/IC50 or NOAEL/IC50 [1]: >111
- CC50 [2]: > 100 µM
- IC50 [2]: > 100 µM
- CC50 ([3]; Table 2): > 100 µM
- inhibition at 10 µM [4]: 8 ± 8%
- inhibition at 10 µM (CYP1A2): 10.2 ± 5.03%
- inhibition at 10 µM (CYP2C9): 1.76 ± 1.59%
- inhibition at 10 µM (CYP2C19): 11.2 ± 5.4%
- inhibition at 10 µM (CYP2D6): 15.1 ± 2.98%
- inhibition at 10 µM (CYP3A4): 35.7 ± 6.01%
- % cell growth A549 (A549): 130.21 ± 5.63%
- % mitochondrial toxicity (mitochondria): 113.57 ± 12.08%
- mitochondrial toxicity (mitochondria): exhibit mitochondrial toxicity
- Flag for Interference, hERG (hERG channel; Table 4b): (no)
- inhibition at 10 µM (hERG channel): -2.04 ± 7.61%

From US20230365602A1, “COMPOUND FOR USE IN THE TREATMENT OF PROTOZOAL DISEASES AND PROCESS FOR PRODUCTION OF SAID COMPOUND” (QUADREL S.R.L., priority 2020, published 2023)
